We go through 24 compounds from patent US12037322B2, “AHR agonists” (Eli Lilly and Company, priority 2021, dated 2024).

The assay deals with T1, hAHR (Homo sapiens, UniProt P35869).
T1 construct: expressed in transfected cells
T1 sequence (P35869 11-848): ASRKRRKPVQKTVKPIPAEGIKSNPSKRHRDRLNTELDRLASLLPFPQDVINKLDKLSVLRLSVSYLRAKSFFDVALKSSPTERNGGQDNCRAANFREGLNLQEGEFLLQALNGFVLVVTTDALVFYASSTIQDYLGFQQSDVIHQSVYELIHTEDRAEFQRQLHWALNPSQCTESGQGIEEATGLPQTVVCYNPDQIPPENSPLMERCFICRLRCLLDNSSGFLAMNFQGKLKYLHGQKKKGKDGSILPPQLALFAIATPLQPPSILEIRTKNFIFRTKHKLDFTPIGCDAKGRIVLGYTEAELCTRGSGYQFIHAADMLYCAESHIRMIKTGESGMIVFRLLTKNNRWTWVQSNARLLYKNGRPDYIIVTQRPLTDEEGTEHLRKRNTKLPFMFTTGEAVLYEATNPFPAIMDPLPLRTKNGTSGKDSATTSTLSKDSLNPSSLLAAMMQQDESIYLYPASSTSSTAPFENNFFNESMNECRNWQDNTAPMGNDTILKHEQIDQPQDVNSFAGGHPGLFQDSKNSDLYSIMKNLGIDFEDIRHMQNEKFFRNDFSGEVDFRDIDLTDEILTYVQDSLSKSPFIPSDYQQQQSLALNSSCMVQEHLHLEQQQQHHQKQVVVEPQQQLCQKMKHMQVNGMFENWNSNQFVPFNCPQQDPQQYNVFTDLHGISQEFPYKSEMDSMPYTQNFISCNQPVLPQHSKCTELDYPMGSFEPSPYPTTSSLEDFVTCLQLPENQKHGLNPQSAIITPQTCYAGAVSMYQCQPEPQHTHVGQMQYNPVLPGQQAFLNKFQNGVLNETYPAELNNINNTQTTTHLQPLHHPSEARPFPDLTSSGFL
The assay can be described thus: hAHR nuclear translocation assay. The format is cell-based. The settings on record: Jump-In T-REx HEK293 cells expressing AhR-EGFP; 45 min incubation; ratio of EGFP intensity in nuclear over cytosol; 20-point curve. On the procedure: Stable cell lines were established using Jump-In™ T-REx™ HEK293 Retargeting Kit (Life Technologies). hAhR cDNA was cloned into the pJTI R4 CMV-TO EGFP vector. The EGFP was cloned to the C-terminal of AHR to form AhR-EGFP chimera. The pJTI R4 CMV-TO AhR-EGFP vector was transfected using FuGENE® HD into Jump-In™ T-REx™ HEK293 cells. Transfected cells were selected using 2.5 mg/ml G418 for 10 to 14 days, then expanded, harvested, and suspended in freeze media (FBS with 8% DMSO) at 2×10^7 cells/mL, and aliquots were stored in liquid nitrogen. One day before the assay date, cells were thawed and resuspended in DMEM with 5% FBS in the presence of 1 μg/mL Doxycycline and plated into ploy-L-Lysine coated […]-384 ULTRA Microplates (Perkin Elmer) at 12,000 to 15,000 cells per well and incubated at 37° C. and 5% CO2 overnight. On the assay date, compound was serially diluted (1:2) into 384-well nunc plates with DMSO using acoustic dispensing (ECHO). The dose response was a 20-point curve. Compound was resuspended in 40 μL of DMEM plus 0.1% BSA. The culture media was damped and 25 μL of DMEM plus 0.1% BSA was added, then 25 μL of compound in DMEM plus 0.1% BSA was added into cell plates. Cells were incubated with compounds at 37° C. and 5% CO2 for 45 min.
The final DMSO concentration was 0.2%. The media was damped after 45 minutes incubation. The cells were fixed with 40 μL of cold MeOH (−20° C.) for 20 min. The MeOH was damped and 50 μL of DPBS containing 1 μg/mL Hochst was added into the cell plates. The intensity of EGFP was quantitated by using OPERA PHENIX® or Operetta™ high content image system (Perkin Elmer) with 20× Water Objective and five field per well. The ratio of EGFP fluorescent intensity in nuclear over cytosol was analyzed using a 4-parameter nonlinear logistic equation to determine the potency of AhR agonists.

Regarding `CC1Cc2c(O)c(C(=O)Nc3ccccn3)c(=O)n(C)c2C1` (single isomer, unassigned) [Example 88, 4-Hydroxy-1,6-dimethyl-2-oxo-N-(2-pyridyl)-6,7-dihydro-5H-cyclopenta[b]pyridine-3-carboxamide], the half-maximal effective concentration (EC50) worked out at 0.897 nM.
The value for `CC1CCc2c1c(O)c(C(=O)Nc1ccccn1)c(=O)n2C` (single isomer, unassigned) [Example 89, 4-Hydroxy-1,5-dimethyl-2-oxo-N-(2-pyridyl)-6,7-dihydro-5H-cyclopenta[b]pyridine-3-carboxamide] was 2.33 nM; that for `CC1CCc2c1c(O)c(C(=O)Nc1ccccn1)c(=O)n2C` (single isomer, unassigned) [Example 90, 4-Hydroxy-1,5-dimethyl-2-oxo-N-(2-pyridyl)-6,7-dihydro-5H-cyclopenta[b]pyridine-3-carboxamide] was 2.89 nM.
On to `CC1CCc2c1c(O)c(C(=O)Nc1ncccc1F)c(=O)n2C` (single isomer, unassigned) [Example 91, N-(3-Fluoro-2-pyridyl)-4-hydroxy-1,5-dimethyl-2-oxo-6,7-dihydro-5H-cyclopenta[b]pyridine-3-carboxamide], for which the 50% effective concentration (EC50) is 4.86 nM.
With `CC1CCc2c1c(O)c(C(=O)Nc1ncccc1F)c(=O)n2C` (single isomer, unassigned) [Example 92, N-(3-Fluoro-2-pyridyl)-4-hydroxy-1,5-dimethyl-2-oxo-6,7-dihydro-5H-cyclopenta[b]pyridine-3-carboxamide], the EC50 stood at 1.44 nM.
`CC1CCc2c1c(O)c(C(=O)Nc1ncc(Cl)cn1)c(=O)n2C` (single isomer, unassigned) [Example 93, N-(5-Chloropyrimidin-2-yl)-4-hydroxy-1,5-dimethyl-2-oxo-6,7-dihydro-5H-cyclopenta[b]pyridine-3-carboxamide]: the concentration giving a half-maximal response (EC50) amounted to 1.06 nM.
The value for `CC1CCc2c1c(O)c(C(=O)Nc1ncc(Cl)cn1)c(=O)n2C` (single isomer, unassigned) [Example 94, N-(5-Chloropyrimidin-2-yl)-4-hydroxy-1,5-dimethyl-2-oxo-6,7-dihydro-5H-cyclopenta[b]pyridine-3-carboxamide] was 0.533 nM.
The value for `CC1CCc2c1c(O)c(C(=O)Nc1ncc(F)cn1)c(=O)n2C` (single isomer, unassigned) [Example 95, N-(5-Fluoropyrimidin-2-yl)-4-hydroxy-1,5-dimethyl-2-oxo-6,7-dihydro-5H-cyclopenta[b]pyridine-3-carboxamide] was 1.21 nM; that for `CC1CCc2c1c(O)c(C(=O)Nc1ncc(F)cn1)c(=O)n2C` (single isomer, unassigned) [Example 96, N-(5-Fluoropyrimidin-2-yl)-4-hydroxy-1,5-dimethyl-2-oxo-6,7-dihydro-5H-cyclopenta[b]pyridine-3-carboxamide] was 0.6 nM.
To `CC1CCc2c1c(O)c(C(=O)Nc1ncc(C(F)(F)F)cn1)c(=O)n2C` (single isomer, unassigned) [Example 97, 4-Hydroxy-1,5-dimethyl-2-oxo-N-[5-(trifluoromethyl)pyrimidin-2-yl]-6,7-dihydro-5H-cyclopenta[b]pyridine-3-carboxamide] belongs 0.709 nM; to `CC1CCc2c1c(O)c(C(=O)Nc1ncc(C(F)(F)F)cn1)c(=O)n2C` (single isomer, unassigned) [Example 98, 4-Hydroxy-1,5-dimethyl-2-oxo-N-[5-(trifluoromethyl)pyrimidin-2-yl]-6,7-dihydro-5H-cyclopenta[b]pyridine-3-carboxamide], 0.342 nM; to `CC1CCc2c1c(O)c(C(=O)Nc1ccc(F)cn1)c(=O)n2C` (single isomer, unassigned) [Example 99, N-(5-Fluoro-2-pyridyl)-4-hydroxy-1,5-dimethyl-2-oxo-6,7-dihydro-5H-cyclopenta[b]pyridine-3-carboxamide], 2.12 nM.
Turning to `CC1CCc2c1c(O)c(C(=O)Nc1ccc(F)cn1)c(=O)n2C` (single isomer, unassigned) [Example 100, N-(5-Fluoro-2-pyridyl)-4-hydroxy-1,5-dimethyl-2-oxo-6,7-dihydro-5H-cyclopenta[b]pyridine-3-carboxamide], the EC50 turned out to be 2.17 nM.
The value for `COc1cnc(NC(=O)c2c(O)c3c(n(C)c2=O)CCC3C)nc1` (single isomer, unassigned) [Example 101, 4-Hydroxy-N-(5-methoxypyrimidin-2-yl)-1,5-dimethyl-2-oxo-6,7-dihydro-5H-cyclopenta[b]pyridine-3-carboxamide] was 6.01 nM; that for `COc1cnc(NC(=O)c2c(O)c3c(n(C)c2=O)CCC3C)nc1` (single isomer, unassigned) [Example 102, 4-Hydroxy-N-(5-methoxypyrimidin-2-yl)-1,5-dimethyl-2-oxo-6,7-dihydro-5H-cyclopenta[b]pyridine-3-carboxamide] was 2.59 nM.
To `CC(C)C1CCc2c1cc(C(=O)Nc1ncc(F)cn1)c(=O)n2C` (single isomer, unassigned) [Example 112, N-(5-fluoropyrimidin-2-yl)-5-isopropyl-1-methyl-2-oxo-6,7-dihydro-5H-cyclopenta[b]pyridine-3-carboxamide] belongs 0.865 nM; to `CC(C)C1CCc2c1cc(C(=O)Nc1ncc(F)cn1)c(=O)n2C` (single isomer, unassigned) [Example 113, N-(5-fluoropyrimidin-2-yl)-5-isopropyl-1-methyl-2-oxo-6,7-dihydro-5H-cyclopenta[b]pyridine-3-carboxamide], 11.2 nM.
The value for `CCC1CCc2c1cc(C(=O)Nc1ncc(F)cn1)c(=O)n2C` (single isomer, unassigned) [Example 114, 5-ethyl-N-(5-fluoropyrimidin-2-yl)-1-methyl-2-oxo-6,7-dihydro-5H-cyclopenta[b]pyridine-3-carboxamide] was 2.44 nM; that for `CCC1CCc2c1cc(C(=O)Nc1ncc(F)cn1)c(=O)n2C` (single isomer, unassigned) [Example 115, 5-ethyl-N-(5-fluoropyrimidin-2-yl)-1-methyl-2-oxo-6,7-dihydro-5H-cyclopenta[b]pyridine-3-carboxamide] was 2.96 nM; that for `CC1CCc2c1cc(C(=O)Nc1ncc(F)cn1)c(=O)n2C` (stereo not drawn) [Example 1, N-(5-Fluoropyrimidin-2-yl)-1,5-dimethyl-2-oxo-6,7-dihydro-5H-cyclopenta[b]pyridine-3-carboxamide] was 9.78 nM.
For the compound `CC1CCc2c1cc(C(=O)Nc1ccc(F)cn1)c(=O)n2C` (stereo not drawn) [Example 2, N-(5-Fluoro-2-pyridyl)-1,5-dimethyl-2-oxo-6,7-dihydro-5H-cyclopenta[b]pyridine-3-carboxamide], the half-maximal effective concentration (EC50) is 9.78 nM.
The value for `CC1CCc2c1cc(C(=O)Nc1ccc(C(F)(F)F)cn1)c(=O)n2C` (stereo not drawn) [Example 4, 1,5-Dimethyl-2-oxo-N-[5-(trifluoromethyl)-2-pyridyl]-6,7-dihydro-5H-cyclopenta[b]pyridine-3-carboxamide] was 1.82 nM; that for `CC1CCc2c1cc(C(=O)Nc1ncccc1F)c(=O)n2C` (stereo not drawn) [Example 5, N-(3-Fluoro-2-pyridyl)-1,5-dimethyl-2-oxo-6,7-dihydro-5H-cyclopenta[b]pyridine-3-carboxamide] was 16.9 nM.
To `CC1CCc2c1cc(C(=O)Nc1ccc(C(F)(F)F)nc1)c(=O)n2C` (stereo not drawn) [Example 6, 1,5-Dimethyl-2-oxo-N-[6-(trifluoromethyl)-3-pyridyl]-6,7-dihydro-5H-cyclopenta[b]pyridine-3-carboxamide] belongs 4.57 nM.

Broadly, the EC50 is the midpoint of the concentration-response curve.
